Measured values published in publication PMC11233931, “Remodeling tumor‐associated macrophage for anti‐cancer effects by rational design of irreversible inhibition of mitogen‐activated protein kinase‐activated protein kinase 2” (MedComm, 2024).
Like-named read-outs stand apart in the source and are kept apart here.

Legend:
Assay in all cases: Eurofins kinase selectivity profile against 380 other human recombinant kinases (Table S2)
Assay type in all cases: biochemical
[1] = target: T1, 380 human recombinant protein kinases (Homo sapiens, UniProt P24941); settings: read-out: Inhibition rate; for inhibition at 0.01 µM: 10 nM; for inhibition at 0.1 µM: 100 nM; for inhibition at 1 µM: 1000 nM
T1 construct: purchased Eurofins (Celle Lévescault)
Method in brief: (§1)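 Values come from a contract kinase-profiling service that tested the compound at multiple concentrations across 380 recombinant human kinases, as an off-target check against the MK2 activity.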

[2] = target: T2, 380 human recombinant protein kinases (Homo sapiens, UniProt P51813); settings: Bmx(h), read-out: Inhibition rate
T2 construct: purchased Eurofins (Celle Lévescault)
T2 sequence (P51813 1-675): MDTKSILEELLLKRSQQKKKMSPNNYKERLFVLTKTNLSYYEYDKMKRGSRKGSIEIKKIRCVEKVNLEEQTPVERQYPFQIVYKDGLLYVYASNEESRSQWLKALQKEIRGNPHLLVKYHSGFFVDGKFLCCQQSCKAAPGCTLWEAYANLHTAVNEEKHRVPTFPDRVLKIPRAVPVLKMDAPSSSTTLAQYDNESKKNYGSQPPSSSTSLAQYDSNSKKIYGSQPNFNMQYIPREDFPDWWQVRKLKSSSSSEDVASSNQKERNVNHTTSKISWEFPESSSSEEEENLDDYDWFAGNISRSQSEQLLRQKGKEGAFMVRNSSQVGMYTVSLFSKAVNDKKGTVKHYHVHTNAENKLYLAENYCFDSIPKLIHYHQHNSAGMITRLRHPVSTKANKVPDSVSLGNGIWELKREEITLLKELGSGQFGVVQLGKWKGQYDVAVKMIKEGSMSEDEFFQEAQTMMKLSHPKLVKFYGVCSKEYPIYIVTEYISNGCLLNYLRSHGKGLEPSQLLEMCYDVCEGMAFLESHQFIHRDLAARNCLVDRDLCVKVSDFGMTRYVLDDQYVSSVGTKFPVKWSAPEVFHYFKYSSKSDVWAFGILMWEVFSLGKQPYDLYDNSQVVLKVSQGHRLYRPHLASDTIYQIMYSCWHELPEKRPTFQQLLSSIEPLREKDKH
Method in brief: as §1

[3] = target: T3, 380 human recombinant protein kinases (Homo sapiens, UniProt Q8IVH8); settings: MAP4K3(h), read-out: Inhibition rate
T3 construct: purchased Eurofins (Celle Lévescault)
T3 sequence (Q8IVH8 1-894): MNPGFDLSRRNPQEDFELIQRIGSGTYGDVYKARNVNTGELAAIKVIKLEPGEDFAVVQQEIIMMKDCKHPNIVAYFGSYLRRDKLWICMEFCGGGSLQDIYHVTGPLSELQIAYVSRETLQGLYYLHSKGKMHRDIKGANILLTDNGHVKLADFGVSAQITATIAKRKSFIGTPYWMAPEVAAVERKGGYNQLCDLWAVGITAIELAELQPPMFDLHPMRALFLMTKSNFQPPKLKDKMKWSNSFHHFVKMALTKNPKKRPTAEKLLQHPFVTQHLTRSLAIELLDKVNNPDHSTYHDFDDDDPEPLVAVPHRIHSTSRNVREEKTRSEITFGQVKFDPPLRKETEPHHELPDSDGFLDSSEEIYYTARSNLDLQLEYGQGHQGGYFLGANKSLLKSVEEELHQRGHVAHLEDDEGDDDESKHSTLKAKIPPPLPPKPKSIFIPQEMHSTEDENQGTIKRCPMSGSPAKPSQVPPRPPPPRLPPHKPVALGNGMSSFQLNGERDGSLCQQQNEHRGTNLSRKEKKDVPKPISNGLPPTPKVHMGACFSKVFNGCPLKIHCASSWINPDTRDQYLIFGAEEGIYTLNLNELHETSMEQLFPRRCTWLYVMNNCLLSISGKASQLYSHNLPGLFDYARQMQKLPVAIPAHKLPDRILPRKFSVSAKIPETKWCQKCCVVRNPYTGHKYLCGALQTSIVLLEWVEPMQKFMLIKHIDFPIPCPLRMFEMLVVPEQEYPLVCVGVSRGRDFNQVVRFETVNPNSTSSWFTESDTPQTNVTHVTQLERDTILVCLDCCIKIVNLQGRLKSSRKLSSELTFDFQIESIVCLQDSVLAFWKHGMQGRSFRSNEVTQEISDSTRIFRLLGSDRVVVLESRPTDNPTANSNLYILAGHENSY
Method in brief: as §1

[4] = target: T4, 380 human recombinant protein kinases (Homo sapiens, UniProt P04049); settings: c-RAF(h), read-out: Inhibition rate
T4 construct: purchased Eurofins (Celle Lévescault)
Method in brief: as §1

[5] = target: T5, 380 human recombinant protein kinases (Homo sapiens, UniProt P23458); settings: JAK1(h), read-out: Inhibition rate
T5 construct: purchased Eurofins (Celle Lévescault)
Method in brief: as §1

T5 sequence (P23458 whole entry): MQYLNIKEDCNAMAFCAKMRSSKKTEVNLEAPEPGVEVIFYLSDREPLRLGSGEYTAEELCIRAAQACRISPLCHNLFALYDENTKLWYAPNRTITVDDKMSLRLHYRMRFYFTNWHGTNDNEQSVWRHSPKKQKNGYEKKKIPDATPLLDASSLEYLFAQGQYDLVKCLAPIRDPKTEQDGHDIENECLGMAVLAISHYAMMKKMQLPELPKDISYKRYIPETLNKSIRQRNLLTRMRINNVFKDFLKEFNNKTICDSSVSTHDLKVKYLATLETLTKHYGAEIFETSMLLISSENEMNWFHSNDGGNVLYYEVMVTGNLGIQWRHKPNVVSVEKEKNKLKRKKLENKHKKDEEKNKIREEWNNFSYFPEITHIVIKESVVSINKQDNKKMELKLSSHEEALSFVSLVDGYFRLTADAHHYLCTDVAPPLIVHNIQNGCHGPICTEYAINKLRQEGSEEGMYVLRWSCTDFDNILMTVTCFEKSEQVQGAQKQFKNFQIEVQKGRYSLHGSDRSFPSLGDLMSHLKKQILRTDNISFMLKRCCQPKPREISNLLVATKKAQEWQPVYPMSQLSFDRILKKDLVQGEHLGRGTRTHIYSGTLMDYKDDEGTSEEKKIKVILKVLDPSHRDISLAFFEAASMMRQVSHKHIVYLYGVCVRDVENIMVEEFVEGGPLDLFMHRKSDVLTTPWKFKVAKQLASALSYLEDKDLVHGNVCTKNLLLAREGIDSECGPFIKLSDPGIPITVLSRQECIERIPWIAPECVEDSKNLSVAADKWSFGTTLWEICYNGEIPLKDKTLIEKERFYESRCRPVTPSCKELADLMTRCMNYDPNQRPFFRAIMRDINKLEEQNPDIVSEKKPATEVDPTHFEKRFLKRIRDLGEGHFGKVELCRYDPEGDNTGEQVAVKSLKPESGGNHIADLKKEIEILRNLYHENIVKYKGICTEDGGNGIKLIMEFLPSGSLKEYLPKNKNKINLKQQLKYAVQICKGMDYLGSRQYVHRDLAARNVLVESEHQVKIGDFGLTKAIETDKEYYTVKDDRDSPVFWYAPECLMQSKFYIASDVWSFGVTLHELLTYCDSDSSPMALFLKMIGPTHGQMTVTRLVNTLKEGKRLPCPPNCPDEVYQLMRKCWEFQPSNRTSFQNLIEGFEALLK
T4 sequence (P04049 whole entry): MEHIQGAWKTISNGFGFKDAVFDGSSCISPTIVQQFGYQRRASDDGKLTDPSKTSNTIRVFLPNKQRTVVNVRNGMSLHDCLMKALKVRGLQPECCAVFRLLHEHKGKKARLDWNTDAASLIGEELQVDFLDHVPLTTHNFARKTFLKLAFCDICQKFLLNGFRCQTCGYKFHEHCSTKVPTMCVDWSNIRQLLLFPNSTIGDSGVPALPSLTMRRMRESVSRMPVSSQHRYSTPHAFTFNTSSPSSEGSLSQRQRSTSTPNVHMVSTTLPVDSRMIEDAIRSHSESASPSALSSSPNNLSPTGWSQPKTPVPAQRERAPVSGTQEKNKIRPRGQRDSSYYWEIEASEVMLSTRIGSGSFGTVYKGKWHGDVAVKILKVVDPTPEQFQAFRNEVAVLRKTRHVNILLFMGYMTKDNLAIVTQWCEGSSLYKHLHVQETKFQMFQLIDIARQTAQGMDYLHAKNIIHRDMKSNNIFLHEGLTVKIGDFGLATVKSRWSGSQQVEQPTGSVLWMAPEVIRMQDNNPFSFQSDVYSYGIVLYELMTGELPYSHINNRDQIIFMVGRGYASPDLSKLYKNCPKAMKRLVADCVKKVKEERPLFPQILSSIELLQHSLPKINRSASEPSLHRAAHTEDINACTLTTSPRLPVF

Q: `C=CC(=O)Nc1cc(-c2cc(-c3cc4c([nH]3)CCNC4=O)ccn2)ccc1OC(F)(F)F` [compound 11] was tested. Which inhibition at 0.01 µM ([1]; CDK2/cyclinA(h)) did it give?
A: -5%

Q: And the inhibition at 0.1 µM ([1]; CDK2/cyclinA(h))?
A: 0%

Q: And the inhibition at 1 µM ([1]; CDK2/cyclinA(h))?
A: 7%

Q: And the inhibition at 0.01 µM ([1]; CDK2/cyclinE(h))?
A: -3%

Q: And the inhibition at 0.1 µM ([1]; CDK2/cyclinE(h))?
A: 1%

Q: What about the inhibition at 1 µM ([1]; CDK2/cyclinE(h)) of the same compound?
A: -1%

Q: And the inhibition at 0.01 µM ([2]; 10 nM)?
A: 1%

Q: And the inhibition at 0.1 µM ([2]; 100 nM)?
A: -4%

Q: What about the inhibition at 1 µM ([2]; 1000 nM) of the same compound?
A: -5%

Q: What about the inhibition at 0.01 µM ([3]; 10 nM) of the same compound?
A: -8%

Q: And the inhibition at 0.1 µM ([3]; 100 nM)?
A: -4%

Q: And the inhibition at 1 µM ([3]; 1000 nM)?
A: 3%

Q: What about the inhibition at 0.01 µM ([4]; 10 nM) of the same compound?
A: -1%

Q: What about the inhibition at 0.1 µM ([4]; 100 nM) of the same compound?
A: 2%

Q: What about the inhibition at 1 µM ([4]; 1000 nM) of the same compound?
A: 1%

Q: And the inhibition at 0.01 µM ([5]; 10 nM)?
A: -6%

Q: And the inhibition at 0.1 µM ([5]; 100 nM)?
A: -8%

Q: What about the inhibition at 1 µM ([5]; 1000 nM) of the same compound?
A: 1%
